In US6737383B1, “Herbicidal oxadiazolidines” (priority 1999, dated 2004):

What was measured:
pigweed = assay: Test B pre/postemergence pigweed; format: in vivo, Amaranthus retroflexus; settings: for Redroot pigweed plant response rating (0 to 10 scale): 0 is no effect
How it was run: (§1)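 Herbicidal effect was estimated by eye on a ten-point control scale after plants spent twelve to sixteen days in a greenhouse following soil or foliar treatment. Foliar sprays targeted plants at one to four leaves; all doses were formulated in a non-phytotoxic solvent with surfactant.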

morningglory = assay: Test B pre/postemergence morningglory; format: in vivo, Ipomoea hederacea; settings: for Morningglory plant response rating (0 to 10 scale): 0 is no effect
How it was run: as §1

giant foxtail = assay: Test B pre/postemergence giant foxtail; format: in vivo, Setaria faberii; settings: for Giant foxtail plant response rating (0 to 10 scale): 0 is no effect
How it was run: as §1

[1] = Preemergence, Rate 62 g/ha, scale of 0 to 10 where 0 is no effect and 10 is complete control
[2] = Preemergence, Rate 250 g/ha, scale of 0 to 10 where 0 is no effect and 10 is complete control
[3] = Preemergence, Rate 500 g/ha, scale of 0 to 10 where 0 is no effect and 10 is complete control
[4] = Rate 62 g/ha, Postemergence, scale of 0 to 10 where 0 is no effect and 10 is complete control
[5] = Rate 125 g/ha, Postemergence, scale 0 to 10
[6] = Rate 125 g/ha, Preemergence, scale of 0 to 10 where 0 is no effect and 10 is complete control
[7] = Rate 500 g/ha, Postemergence, scale 0 to 10, 0 no effect, 10 complete control
[8] = Postemergence, Rate 62 g/ha, scale 0 to 10, 0 is no effect, 10 is complete control
[9] = Postemergence, Rate 250 g/ha, scale 0 to 10, 0 no effect, 10 complete control
[10] = Preemergence, Rate 62 g/ha, scale 0 to 10, 0 is no effect, 10 is complete control
[11] = Preemergence, Rate 125 g/ha, scale 0 to 10 (0 no effect, 10 complete control)
[12] = Preemergence, Rate 500 g/ha, scale 0 (no effect) to 10 (complete control)
[13] = Rate 125 g/ha, Postemergence, scale 0 to 10, 0 no effect, 10 complete control
[14] = Rate 500 g/ha, Postemergence, 0 to 10 scale (0 no effect, 10 complete control)
[15] = Postemergence, Rate 125 g/ha, scale of 0 to 10 where 0 is no effect and 10 is complete control
[16] = Postemergence, Rate 250 g/ha, scale of 0 to 10, 0 is no effect, 10 is complete control
[17] = Preemergence, Rate 62 g/ha, scale 0 to 10 (0 no effect, 10 complete control)
[18] = Preemergence, Rate 125 g/ha, scale of 0 to 10 where 0 is no effect and 10 is complete control
[19] = Preemergence, Rate 250 g/ha, scale 0 to 10 (0 no effect, 10 complete control)
[20] = Postemergence, Rate 500 g/ha, scale of 0 to 10 where 0 is no effect and 10 is complete control
[21] = Preemergence, Rate 125 g/ha, 10 is complete control
[22] = Preemergence, Rate 250 g/ha, scale 0 to 10, 0 is no effect, 10 is complete control
[23] = Preemergence, Rate 500 g/ha, scale 0 to 10 (0 no effect, 10 complete control)
[24] = Rate 500 g/ha, Postemergence, scale 0 to 10

SMILES: CC(C)N(C(=O)n1oc(=O)n(CC2(C)COC2)c1=O)c1ccc(F)cc1 [Compound 226]
- Redroot pigweed plant response rating (pigweed; [1]): 0
- Redroot pigweed plant response rating (pigweed; [2]): 7
- Plant response rating, Redroot pigweed (pigweed; [3]): 9
- Redroot pigweed plant response rating (pigweed; [4]): 0
- Redroot pigweed plant response rating (pigweed; [5]): 0
- Redroot pigweed plant response rating (pigweed; [6]): 0
- Plant response rating (0 to 10; 0 is no effect, 10 is complete control), Redroot pigweed (pigweed; Rate 250 g/ha, Postemergence): 0
- Redroot pigweed plant response rating (pigweed; [7]): 0
- Morningglory plant response rating (morningglory; [1]): 0
- Morningglory plant response rating (morningglory; [2]): 7
- Plant response rating, Morningglory (morningglory; [3]): 8
- Morningglory plant response rating (morningglory; [4]): 5
- Morningglory plant response rating (morningglory; [5]): 7
- Morningglory plant response rating (morningglory; [6]): 0
- Plant response rating (0 to 10; 0 is no effect, 10 is complete control), Morningglory (morningglory; Rate 250 g/ha, Postemergence): 7
- Morningglory plant response rating (morningglory; [7]): 7
- Giant foxtail plant response rating (giant foxtail; [1]): 9
- Giant foxtail plant response rating (giant foxtail; [2]): 10
- Plant response rating, Giant foxtail (giant foxtail; [3]): 10
- Giant foxtail plant response rating (giant foxtail; [4]): 2
- Giant foxtail plant response rating (giant foxtail; [5]): 7
- Giant foxtail plant response rating (giant foxtail; [6]): 10
- Plant response rating (0 to 10; 0 is no effect, 10 is complete control), Giant foxtail (giant foxtail; Rate 250 g/ha, Postemergence): 7
- Giant foxtail plant response rating (giant foxtail; [7]): 7

SMILES: COc1ccc(-n2c(=O)on(C(=O)N(c3ccc(F)cc3)C(C)C)c2=O)c(C)c1 [Compound 35]
- Redroot pigweed plant response rating (pigweed; [8]): 0
- Redroot pigweed plant response rating (pigweed; [9]): 9
- Plant response rating, Redroot pigweed (pigweed; [10]): 0
- Plant response rating, Redroot pigweed (pigweed; [11]): 0
- Plant response rating, Redroot pigweed (pigweed; [2]): 0
- Redroot pigweed plant response rating (pigweed; [12]): 0
- Redroot pigweed plant response rating (pigweed; [13]): 7
- Redroot pigweed plant response rating (pigweed; [14]): 9
- Morningglory plant response rating (morningglory; [8]): 4
- Morningglory plant response rating (morningglory; [9]): 8
- Plant response rating, Morningglory (morningglory; [10]): 0
- Plant response rating, Morningglory (morningglory; [11]): 0
- Plant response rating, Morningglory (morningglory; [2]): 0
- Morningglory plant response rating (morningglory; [12]): 0
- Morningglory plant response rating (morningglory; [13]): 7
- Morningglory plant response rating (morningglory; [14]): 8
- Giant foxtail plant response rating (giant foxtail; [8]): 0
- Giant foxtail plant response rating (giant foxtail; [9]): 1
- Plant response rating, Giant foxtail (giant foxtail; [10]): 3
- Plant response rating, Giant foxtail (giant foxtail; [11]): 7
- Plant response rating, Giant foxtail (giant foxtail; [2]): 10
- Giant foxtail plant response rating (giant foxtail; [12]): 10
- Giant foxtail plant response rating (giant foxtail; [13]): 0
- Giant foxtail plant response rating (giant foxtail; [14]): 7

SMILES: CC(C)N(C(=O)n1oc(=O)n(CC2CCCCO2)c1=O)c1ccc(F)cc1 (stereo not shown) [Compound 624]
- Plant response rating, Redroot pigweed (pigweed; [8]): 0
- Plant response rating, Redroot pigweed (pigweed; [15]): 0
- Redroot pigweed plant response rating (pigweed; [16]): 2
- Redroot pigweed plant response rating (pigweed; [17]): 0
- Redroot pigweed plant response rating (pigweed; [18]): 0
- Plant response rating, Redroot pigweed (pigweed; [19]): 3
- Plant response rating, Redroot pigweed (pigweed; [3]): 10
- Plant response rating, Morningglory (morningglory; [8]): 1
- Plant response rating, Morningglory (morningglory; [15]): 1
- Morningglory plant response rating (morningglory; [16]): 1
- Plant response rating, Morningglory (morningglory; [20]): 2
- Morningglory plant response rating (morningglory; [17]): 0
- Morningglory plant response rating (morningglory; [18]): 0
- Plant response rating, Morningglory (morningglory; [19]): 0
- Plant response rating, Morningglory (morningglory; [3]): 0
- Plant response rating, Giant foxtail (giant foxtail; [8]): 4
- Plant response rating, Giant foxtail (giant foxtail; [15]): 8
- Giant foxtail plant response rating (giant foxtail; [16]): 8
- Plant response rating, Giant foxtail (giant foxtail; [20]): 9
- Giant foxtail plant response rating (giant foxtail; [17]): 10
- Giant foxtail plant response rating (giant foxtail; [18]): 10
- Plant response rating, Giant foxtail (giant foxtail; [19]): 10
- Plant response rating, Giant foxtail (giant foxtail; [3]): 10

SMILES: COc1nc(OC)nc(N(C(=O)n2oc(=O)n(C(C)C)c2=O)C(C)C)n1 [Compound 182]
- Redroot pigweed plant response rating (pigweed; [1]): 0
- Redroot pigweed plant response rating (0 to 10 scale) (pigweed; [21]): 0
- Redroot pigweed plant response rating (pigweed; [22]): 0
- Redroot pigweed plant response rating (pigweed; [23]): 0
- Redroot pigweed plant response rating (pigweed; [4]): 0
- Redroot pigweed plant response rating (pigweed; [5]): 0
- Plant response rating (0 to 10; 0 is no effect, 10 is complete control), Redroot pigweed (pigweed; Rate 250 g/ha, Postemergence): 0
- Redroot pigweed plant response rating (pigweed; [24]): 0
- Morningglory plant response rating (morningglory; [1]): 0
- Morningglory plant response rating (0 to 10 scale) (morningglory; [21]): 0
- Morningglory plant response rating (morningglory; [22]): 0
- Morningglory plant response rating (morningglory; [23]): 0
- Morningglory plant response rating (morningglory; [4]): 0
- Morningglory plant response rating (morningglory; [5]): 0
- Plant response rating (0 to 10; 0 is no effect, 10 is complete control), Morningglory (morningglory; Rate 250 g/ha, Postemergence): 0
- Morningglory plant response rating (morningglory; [24]): 0
- Giant foxtail plant response rating (giant foxtail; [1]): 0
- Giant foxtail plant response rating (0 to 10 scale) (giant foxtail; [21]): 0
- Giant foxtail plant response rating (giant foxtail; [22]): 0
- Giant foxtail plant response rating (giant foxtail; [23]): 0
- Giant foxtail plant response rating (giant foxtail; [4]): 0
- Giant foxtail plant response rating (giant foxtail; [5]): 0
- Plant response rating (0 to 10; 0 is no effect, 10 is complete control), Giant foxtail (giant foxtail; Rate 250 g/ha, Postemergence): 0
- Giant foxtail plant response rating (giant foxtail; [24]): 0

SMILES: Cc1ccccc1-n1c(=O)on(C(=O)N(c2ccc(Cl)cc2F)C(C)C)c1=O [Compound 195]
- Redroot pigweed plant response rating (pigweed; [1]): 0
- Redroot pigweed plant response rating (0 to 10 scale) (pigweed; [21]): 0
- Redroot pigweed plant response rating (pigweed; [22]): 0
- Plant response rating, Redroot pigweed (pigweed; [3]): 0
- Redroot pigweed plant response rating (pigweed; [4]): 0
- Redroot pigweed plant response rating (pigweed; [5]): 0
- Plant response rating (0 to 10; 0 is no effect, 10 is complete control), Redroot pigweed (pigweed; Rate 250 g/ha, Postemergence): 2
- Redroot pigweed plant response rating (pigweed; [24]): 4
- Morningglory plant response rating (morningglory; [1]): 0
- Morningglory plant response rating (0 to 10 scale) (morningglory; [21]): 0
- Morningglory plant response rating (morningglory; [22]): 0
- Plant response rating, Morningglory (morningglory; [3]): 0
- Morningglory plant response rating (morningglory; [4]): 0
- Morningglory plant response rating (morningglory; [5]): 0
- Plant response rating (0 to 10; 0 is no effect, 10 is complete control), Morningglory (morningglory; Rate 250 g/ha, Postemergence): 1
- Morningglory plant response rating (morningglory; [24]): 3
- Giant foxtail plant response rating (giant foxtail; [1]): 3
- Giant foxtail plant response rating (0 to 10 scale) (giant foxtail; [21]): 3
- Giant foxtail plant response rating (giant foxtail; [22]): 8
- Plant response rating, Giant foxtail (giant foxtail; [3]): 10
- Giant foxtail plant response rating (giant foxtail; [4]): 0
- Giant foxtail plant response rating (giant foxtail; [5]): 0
- Plant response rating (0 to 10; 0 is no effect, 10 is complete control), Giant foxtail (giant foxtail; Rate 250 g/ha, Postemergence): 1
- Giant foxtail plant response rating (giant foxtail; [24]): 3

SMILES: CC(C)N(C(=O)n1oc(=O)n(Cc2cccs2)c1=O)c1ccc(F)cc1 [Compound 80]
- Redroot pigweed plant response rating (pigweed; [8]): 2
- Redroot pigweed plant response rating (pigweed; [9]): 4
- Plant response rating, Redroot pigweed (pigweed; [11]): 7
- Plant response rating, Redroot pigweed (pigweed; [2]): 7
- Redroot pigweed plant response rating (pigweed; [12]): 7
- Redroot pigweed plant response rating (pigweed; [13]): 3
- Redroot pigweed plant response rating (pigweed; [7]): 4
- Morningglory plant response rating (morningglory; [8]): 7
- Morningglory plant response rating (morningglory; [9]): 10
- Morningglory plant response rating (morningglory; [17]): 0
- Plant response rating, Morningglory (morningglory; [11]): 0
- Plant response rating, Morningglory (morningglory; [2]): 0
- Morningglory plant response rating (morningglory; [12]): 0
- Morningglory plant response rating (morningglory; [13]): 8
- Morningglory plant response rating (morningglory; [7]): 10
- Giant foxtail plant response rating (giant foxtail; [8]): 0
- Giant foxtail plant response rating (giant foxtail; [9]): 3
- Giant foxtail plant response rating (giant foxtail; [17]): 6
- Plant response rating, Giant foxtail (giant foxtail; [11]): 8
- Plant response rating, Giant foxtail (giant foxtail; [2]): 8
- Giant foxtail plant response rating (giant foxtail; [12]): 9
- Giant foxtail plant response rating (giant foxtail; [13]): 2
- Giant foxtail plant response rating (giant foxtail; [7]): 7
